Reference: article doi:10.1101/2024.02.23.581731v1 (biorxiv, 2024)
Residue numbers refer to the chain shown, from its start.

Legend:
h5-HT3AR [1] = biological target: T1, h5-HT3AR (Homo sapiens, UniProt P46098); experiment: FLIPR Blue membrane potential assay, activation; assay type: cell-based; details: relative to 1 µM VTX
T1 sequence (P46098 24-478): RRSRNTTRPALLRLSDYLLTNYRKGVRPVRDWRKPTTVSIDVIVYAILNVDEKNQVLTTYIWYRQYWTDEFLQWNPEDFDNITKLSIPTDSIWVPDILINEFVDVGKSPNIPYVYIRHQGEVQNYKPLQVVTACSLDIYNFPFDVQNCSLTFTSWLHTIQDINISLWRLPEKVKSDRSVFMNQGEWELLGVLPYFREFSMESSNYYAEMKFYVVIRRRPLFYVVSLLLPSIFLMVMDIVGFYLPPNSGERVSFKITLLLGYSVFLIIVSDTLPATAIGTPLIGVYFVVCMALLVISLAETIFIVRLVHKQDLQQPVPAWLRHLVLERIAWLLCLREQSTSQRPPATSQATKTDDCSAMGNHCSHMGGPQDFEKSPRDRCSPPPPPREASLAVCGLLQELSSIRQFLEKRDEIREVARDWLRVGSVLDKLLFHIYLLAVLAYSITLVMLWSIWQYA

h5-HT3AR [2] = biological target: T1, h5-HT3AR; experiment: [3H]-GR65630 displacement, HEK-293 membranes; assay type: binding
h5-HT3AR [3] = biological target: T1, h5-HT3AR; experiment: biochemical
h5-HT3AR [4] = biological target: T2, h5-HT3AR (Homo sapiens, UniProt P46098, V202I); experiment: biochemical
T2 sequence (P46098 24-478 V202I): T1 sequence (P46098 24-478) with V179I

gp5-HT3AR = biological target: T3, gp5-HT3AR (Cavia porcellus, UniProt O70212); experiment: FLIPR Blue membrane potential assay, inhibition of 5-HT response; assay type: cell-based
T3 sequence (O70212 20-490): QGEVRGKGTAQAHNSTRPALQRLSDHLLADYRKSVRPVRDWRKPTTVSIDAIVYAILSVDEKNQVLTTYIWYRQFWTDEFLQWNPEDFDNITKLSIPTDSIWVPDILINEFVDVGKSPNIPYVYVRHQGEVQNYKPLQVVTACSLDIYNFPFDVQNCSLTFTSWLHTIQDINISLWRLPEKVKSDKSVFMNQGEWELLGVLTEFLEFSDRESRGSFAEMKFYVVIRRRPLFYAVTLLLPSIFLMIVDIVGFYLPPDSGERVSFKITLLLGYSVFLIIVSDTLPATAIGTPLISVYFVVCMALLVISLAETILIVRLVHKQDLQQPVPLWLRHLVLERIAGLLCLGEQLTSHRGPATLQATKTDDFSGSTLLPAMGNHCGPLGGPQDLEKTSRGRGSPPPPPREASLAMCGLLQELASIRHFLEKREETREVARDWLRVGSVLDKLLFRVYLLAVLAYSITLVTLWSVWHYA

SMILES	Activity (%) at 1 μM (h5-HT3AR [1]) [%]	IC50 (gp5-HT3AR) [µM]	other results
Cc1ccc(Sc2ccccc2N2CCNCC2)cc1 [4j]	95 ± 12	–	–
COc1ccc(Sc2ccccc2N2CCNCC2)c(Cl)c1 [5n]	111 ± 14	–	–
Cc1ccc(Sc2ccc(C)cc2N2CCNCC2)c(C)c1 [6b]	–	–	Ki (h5-HT3AR [2]): 880 nM
Cc1[nH]cnc1CCC(=O)c1cn(C)c2ccccc12 [[3H]-GR65630]	–	–	Kd (h5-HT3AR [3]): 0.82 ± 0.06 nM; Kd (h5-HT3AR [4]): 0.62 ± 0.05 nM

Continued, in another order:

Activity (%) at 1 μM (h5-HT3AR [1]) [%]	IC50 (gp5-HT3AR) [µM]	SMILES	other results
–	1.26	CN1C2CCCC1CC(NC(=O)c1nn(C)c3ccccc13)C2 (stereo not shown) [granisetron]	–
–	9.81	Cc1nccn1CC1CCc2c(c3ccccc3n2C)C1=O (stereo not shown) [ondansetron]	–
